Source: US6630303B1, “Methods of screening for compounds active on Staphylococcus aureus target genes” (priority 1995, dated 2003)

Columns and labels:
[1] = system: ts S. typhimurium mutant alleles of the gyrase subunit A; test: Hypersusceptibility (MIC) of S. typhimurium gyrA ts mutants at semi-permissive temperature; assay type: cell-based, Salmonella typhimurium
Experimental: As an illustration of the hypersusceptibility profiles for a group of bacterial ts mutant strains, the minimal inhibitory concentrations (MICs) of various drugs and toxic agents were determined for a set of Salmonella typhimurium temperature-sensitive essential gene mutants.
The MICs were measured by using a standard micro broth dilution technique following the recommendations of the National Committee for Clinical Laboratory Standards (1994). Bacteria were first grown in Mueller-Hinton broth at 30° C., diluted to 10^5 cfu/ml and used to inoculate 96-microwell plates containing two-fold dilutions of antibiotics in Mueller-Hinton broth. Plates were incubated for 20 h at a semi-permissive temperature (35° C.) and the MIC was determined as the lowest dilution of antibiotic preventing visible growth.
A two-fold difference in the susceptibility level of the mutant strain compared to that of the parental strain is within the limits of the experimental variation and thus a ≧4-fold decrease in MIC was considered as a significant hypersusceptibility.
The specific hypersensitivity of temperature sensitive mutations in a known target to inhibitors of that target is shown in FIG. 1 with the susceptibility profile of three ts S. typhimurium mutant alleles of the gyrase subunit A (gyrA212, gyrA215 and gyrA216) grown at a semi-permissive temperature (35° C.).

[2] = system: Salmonella wild type parent strain; test: Carbon source utilization profile (gene sensor methodology); assay type: cell-based; conditions: sublethal concentration; carbon source not used by the dapA or murCEFG mutant
Description: The growth conditional mutants are also used in gene sensor methodology, e.g., using carbon utilization profiles. Ts mutants fail to metabolize different carbon sources in semi-permissive growth conditions. The carbon sources not utilized by a specific mutant or group of mutants provide additional phenotypes associated with the crippled essential function. Moreover, some of these carbon source markers were also not used by the wild type strain exposed to sub-MIC concentrations of known drugs affecting the same specific cellular targets or pathways.

[3] = mutant gyrA222, semi-permissive temperature 35° C.
[4] = mutant gyrA215, semi-permissive temperature 35° C.

Row | Compound | hypersusceptibility compared to wild-type parent strain [1, 3] | hypersusceptibility compared to wild-type parent strain [1, 4] | hypersusceptibility compared to wild-type parent strain ([1]; mutant gyrA276, semi-permissive temperature 35° C.) | carbon source metabolism [2]
1 | O=C(O)c1cn(C2CC2)c2cc(N3CCNCC3)c(F)cc2c1=O [ciprofloxacin] | hypersusceptibility |  |  | 
2 | coumermycin |  | hypersusceptibility | hypersusceptibility | 
3 | Cn1nnnc1SCC1=C(C(=O)O)N2C(=O)[C@@H](NC(=O)[C@H](O)c3ccccc3)[C@H]2SC1 [cefamandole] |  |  |  | prevented the Salmonella wild type parent strain from metabolizing the same carbon source
4 | CCn1cc(C(=O)O)c(=O)c2cc(F)c(N3CCNCC3)cc21 [norfloxacin] | hypersusceptibility | hypersusceptibility |  | 
